In data set [1] the target is HCV RNA-dependent RNA polymerase (UniProt P27958). As to the kind of experiment: Inhibitory activity against HCV RNA-dependent RNA polymerase (Experiment Example 1). Type of data set: biochemical, hepatitis C virus (HCV). The settings on record: Experimental example 1, poly(A) template, oligo(U)12 primer, 3H-UTP substrate, enzyme reaction 25° C. for 30 min. An excerpt:
Inhibitory Activity Against HCV RNA-Dependent RNA Polymerase
(1) Preparation of Hepatitis C Virus (HCV) RNA-Dependent RNA Polymerase
It was collected several cDNA clones of HCV RNA-dependent RNA polymerase from plasma of people infected with HCV, RNA-dependent RNA polymerase was expressed by using insect cell or E. coli from these clones. RNA-dependent RNA polymerase in cell extract was purified by anion-exchange chromatography, heparin-affinity chromatography, poly U-affinity chromatography, cation-exchange chromatography, gel filtration chromatography, and the like. The preparation was done at about 4° C. under low temperature condition, as solution dissolving enzyme was used Tris buffer (pH 7.5) containing ethylenediamine tetraacetic acid (1 mM), dithiothreitol (10 mM), and glycerol (20%). The purified enzyme was kept at 4° C. or −20° C. until it was used for assay.
(2) Method of HCV RNA-Dependent RNA Polymerase Assay
(1) In polypropylene vessel was added buffer I*^1)(10.5 μL) containing Tris-HCl (100 mM, pH 7.5), magnesium chloride (25 mM), dithiothreitol (5 mM), potassium chloride (125 mM), ethylenediamine tetraacetic acid (5 mM), and then were added poly(A)*^2) aqueous solution (100 μg/mL, 10.5 μL), oligo(U)12*^3) aqueous solution (10 μg/mL, 10.5 μL), and water (8 μL), and the mixture was mixed slowly.
*1) All of water used as experimental material in enzyme reaction were carried out inactivation treatment of Rnase with diethylpyrocarbonate. The inactivation treatment with diethylpyrocarbonate was carried out as follows, 1) diethylpyrocarbonate (0.1 g) was dissolved in de-ionized water (100 mL), 2) the solution was stood at 37° C. for 24 h, 3) kept in autoclave at 120° C. for 30 min.
*2) Poly(A) is single strand polynucleotide composed with only adenylic acid. It was used as template.
*3) Oligo(U)12 is single strand oligonucleotide composed with only 12 element of uridylic acid. It was used as primer.
(2) Next, to the mixture was added a solution (10.5 μL) of RNA-dependent RNA polymerase, and preincubation was carried out at 25° C. for 60 min.
(3) A solution (50 μL) preincubated described in (2) was added into 96-wells microtiter plate divided test compound (5.26 μL per well) dissolved with dimethylsulfoxide or water.
*4) UTP is uridine triphosphate. It was used as substrate.
(5) When the enzyme reaction was passed for 30 min, to the mixture was added a aqueous solution (50 mM, 50 μL) of ethylenediamine tetraacetic acid disodium and the enzyme reaction was stopped.
(6) Next, after all volume of sample of (5) was transferred on filter introduced diethylaminoethyl group (henceforth shortening as DEAE-filter mat) by using cell harvester, was carried the washing twice with sodium phosphate buffer (0.25 M, pH 7.0) for 10 sec and the washing once with deionized water for 10 sec.
(7) After the washing, DEAE-filter mat was dried at 95° C. for 15 min and sealed together with liquid scintillator (10 mL) into sample bag.
(8) Radioactivity was measured by using scintillation counter.
(9) The percentage of inhibition was calculated by replacing the measured value of radioactivity (unit; ccpm) into the following expression.
The percentage of inhibition=100−(the measured value in presence of test compound−the measured value in absence of enzyme)÷(the measured value in absence of test compound−the measured value in absence of enzyme)×100.
(10) The concentration of test compound inhibiting 50% (IC50) was obtained from the percentage of inhibition calculated in (9) and the used concentration of test compound inhibiting.
In case of the percentage of inhibition is A % when α μg/mL of the compound is used and the percentage of inhibition is B % when β μg/ml of the compound is used, IC50 was obtained from the following expression. Provided that it is theorized as A≧50>B. […]

The target of data set [2] is T1, RNA-dependent RNA polymerase (RdRp) of bovine virus diarrhea virus (BVDV) (Bovine viral diarrhea virus, UniProt P19711).
T1 construct: RNA-dependent RNA polymerase (RdRp) of bovine virus diarrhea virus (BVDV)
T1 sequence (P19711 3270-3988): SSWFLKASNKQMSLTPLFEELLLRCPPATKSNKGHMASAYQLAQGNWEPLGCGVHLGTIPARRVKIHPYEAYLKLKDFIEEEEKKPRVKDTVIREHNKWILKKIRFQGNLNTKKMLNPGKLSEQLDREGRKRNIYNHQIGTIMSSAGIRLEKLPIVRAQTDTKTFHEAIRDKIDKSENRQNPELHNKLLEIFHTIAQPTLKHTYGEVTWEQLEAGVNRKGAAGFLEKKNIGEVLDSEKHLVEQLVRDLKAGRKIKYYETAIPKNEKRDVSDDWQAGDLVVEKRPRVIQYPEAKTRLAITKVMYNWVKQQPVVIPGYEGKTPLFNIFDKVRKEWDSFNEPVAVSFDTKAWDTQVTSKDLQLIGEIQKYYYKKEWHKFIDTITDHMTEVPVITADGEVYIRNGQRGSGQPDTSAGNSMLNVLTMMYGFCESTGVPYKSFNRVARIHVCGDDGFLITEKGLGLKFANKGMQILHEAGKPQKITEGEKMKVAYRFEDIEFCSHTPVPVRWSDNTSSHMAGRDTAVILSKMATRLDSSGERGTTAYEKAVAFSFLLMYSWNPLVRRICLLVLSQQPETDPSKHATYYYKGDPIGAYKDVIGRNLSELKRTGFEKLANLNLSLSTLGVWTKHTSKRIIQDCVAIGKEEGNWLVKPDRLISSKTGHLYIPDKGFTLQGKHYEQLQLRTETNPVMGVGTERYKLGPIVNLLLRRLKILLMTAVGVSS
The data set is described as follows: Inhibitory activity against BVDV RNA-dependent RNA polymerase (Experiment Example 2). Format: biochemical. The settings on record: Experimental example 2; same way as experiment example 1. The source says:
Inhibitory Activity Against BVDV RNA-Dependent RNA Polymerase
Inhibitory activity against RNA-dependent RNA polymerase (RdRp) of bovine virus diarrhea virus (BVDV) was experimented too in the same way in experiment example 1.

The mark [3] stands for this setting: read-out: IC50 for HCV RdRp (converted).

The values that follow come from US6809101B2, “Compounds having anti-hepatitis C virus effect” (priority 2000, dated 2004).

Where two headings read alike, the source gives them in different places.

Regarding `Cc1cnc(/C(O)=C2\SC(=S)NC2=O)o1` [Compound I-1, 5-[1-Hydroxy-1-(5-methyloxazol-2-yl)]methylene-2-thioxothiazolidin-4-one], the melting point was 243 to 245 °C (dec.). Further, the IC50 in data set [1] (read-out: IC50 for HCV RdRp) was 1.03 µM. In addition, in data set [2], the IC50 is 10.3 µM.

Take `O=C1NC(=S)S/C1=C(/O)c1ccco1` [Compound I-2, 5-[1-(Furan-2-yl)-1-hydroxy]methylene-2-thioxothiazolidin-4-one]: the melting point is 230 to 235 °C (dec.). In addition, the IC50 in data set [1] (setting [3]) is 3.96 µM. For the same compound, in data set [2], inhibition was half-maximal at 79.2 µM (IC50).

Take `Cc1ccc(C(O)=C2SC(=S)NC2=O)o1` [Compound I-22, 5-[1-Hydroxy-1-(5-methylfuran-2-yl)]methylene-2-thioxothiazolidin-4-one]: the melting point is 195 to 198 °C (dec.). For the same compound, the IC50 in data set [1] (setting [3]) is 20.3 µM. In addition, half-maximal inhibition in data set [2] (IC50) was put at 153 µM.

Take `Cc1cnoc1C(O)=C1SC(=S)NC1=O` [Compound I-27, 5-[1-Hydroxy-1-(4-methylisoxazol-5-yl)]methylene-2-thioxothiazolidin-4-one]: the melting point was 230 to 234 °C (dec.). Besides, the IC50 in data set [1] (setting [3]) was 6.6 µM. This compound also gave an IC50 in data set [2] of 74.3 µM.

In the case of `O=C1NC(=S)SC1=C(O)c1ccon1` [Compound I-29, 5-[1-(Isoxazol-3-yl)1-hydroxy]methylene-2-thioxothiazolidin-4-one], the melting point was 210 to 215 °C (dec.). For the same compound, in data set [1] (setting [3]), the concentration for half-maximal inhibition (IC50) was 7.89 µM. Moreover, the IC50 in data set [2] was 118 µM.

Take `O=C1NC(=S)SC1=C(O)c1ccno1` [Compound I-30, 5-[1-(Isoxazol-5-yl)1-hydroxy]methylene-2-thioxothiazolidin-4-one]: the melting point is 195 to 202 °C (dec.). For the same compound, in data set [1] (setting [3]), the IC50 is 29.8 µM. Besides, in data set [2], the IC50 was 140 µM.

With `O=C1NC(=S)SC1=C(O)c1nn[nH]n1` [Compound I-32, 5-[1-Hydroxy-1-(2H-tetrazol-5-yl)]methylene-2-thioxothiazolidin-4-one], the melting point is 188 to 193 °C (dec.). Besides, in data set [1] (setting [3]), the IC50 is 14 µM. The compound further gave an IC50 in data set [2] of 161 µM.

As to `O=C1NC(=S)SC1=C(O)c1nc[nH]n1` [Compound I-34, 5-[1-Hydroxy-1-(1H-1,2,4-triazol-3-yl)]methylene-2-thioxothiazolidin-4-one], the melting point was 285 to 290 °C (dec.). For the same compound, the IC50 in data set [1] (setting [3]) was 4.03 µM. This compound also gave an IC50 in data set [2] of 61.3 µM.

In the case of `O=C1NC(=S)SC1=C(O)c1ncccn1` [Compound I-35, 5-[1-Hydroxy-1-(pyrimidin-2-yl)]methylene-2-thioxothiazolidin-4-one], the melting point is > 250 °C (dec.). Moreover, the IC50 in data set [1] (setting [3]) is 5.85 µM. In data set [2], this compound had an IC50 of 142 µM.

Consider `O=C1NC(=S)SC1=C(O)c1cnccn1` [Compound I-36, 5-[1-Hydroxy-1-(pyrazin-2-yl)]methylene-2-thioxothiazolidin-4-one], for which the melting point is > 250 °C (dec.). In addition, in data set [1] (setting [3]), the IC50 is 31.8 µM. Moreover, in data set [2], inhibition was half-maximal at 159 µM (IC50).

On to `O=C1NC(=S)SC1=C(O)c1ccccn1` [Compound I-37, 5-[1-Hydroxy-1-(pyridin-2-yl)]methylene-2-thioxothiazolidin-4-one], for which the melting point was > 250 °C (dec.). In data set [1] (setting [3]), the IC50 was 12.6 µM. In data set [2], this compound gave an IC50 of 151 µM.

With `Cc1nnc(C(O)=C2SC(=S)NC2=O)o1` [Compound I-40, 5-[1-Hydroxy-1-(5-methyl-1,3,4-oxadiazol-2-yl)]methylene-2-thioxothiazolidin-4-one], the melting point was 230 to 237 °C (dec.). Also, in data set [1] (setting [3]), the IC50 was 8.22 µM. The same compound had an IC50 in data set [2] of 21.8 µM.
